The source of these data is the METLIN SMRT retention time set (Domingo-Almenara et al. 2019).

SMILES strings stand for the structures.

A short description of this series: gradient 5% acetonitrile 3 min, to 50% in 2 min, to 85% in 15 min, held 3 min, 100 µL/min. As to conditions: column: Zorbax Extend-C18 2.1 x 50 mm; eluents: water / acetonitrile, 0.1% formic acid. The method in brief: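 Pure standards were analyzed in mixtures of ~100 molecules using HPLC coupled to a quadrupole time-of-flight mass spectrometer, in both positive and negative ionization mode. Separation used a Zorbax Extend-C18 column (2.1 × 50 mm, 1.8 μm) at 100 μL/min, with water and acetonitrile each containing 0.1% formic acid. Dead and dwell volumes were 40 μL and 900 μL, and data were collected over 3 months. Retention time was read from computationally picked adduct peaks, each inspected manually.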
As for `CSc1ccc(NC(=O)c2cn3c(n2)CSCC3)cc1`, the RP-LC retention time is 727 s. The same measure for `COCC(=O)NC1CCC12CCN(C(=O)c1ccco1)CC2` (centres undefined): 648 s. Then `O=C(c1ccoc1)N1CCC(c2cc(-c3ccc(F)cc3)n[nH]2)CC1`, with 777 s; and `CCc1nnc2cc(N3CCN(S(=O)(=O)c4cccc(F)c4)CC3)cnn12`, with 690 s. Take `Cc1cc(F)ccc1NC(=O)CN1C(=O)C2CCCCN2c2ccc(S(=O)(=O)N(C)C)cc21` (centres undefined): the RP-LC retention time was determined as 896 s. As for `COCCNC(=O)c1nccnc1NC(=O)c1ccc(C)cc1`, the RP-LC retention time came out at 759 s. With `Cc1ccc(-c2noc(CCN3CCN(c4ccccc4)CC3)n2)cc1`, the RP-LC retention time stood at 751 s. `Cc1ccc(-c2nc(-c3ccnc(N4CCCC4)c3)no2)s1` had an RP-LC retention time of 733 s. For the compound `O=C(Nc1nc(CC(=O)N2CCN(C(=O)C3CCCO3)CC2)cs1)c1ccsc1` (centres undefined), the RP-LC retention time is 606 s. Regarding `O=C(Cn1ncc2c(N3CCN(c4ccccn4)CC3)ncnc21)Nc1cccc(Cl)c1`, the RP-LC retention time came out at 638 s.

The compound `Cc1ccc(CNC(=O)C2CCCN2S(=O)(=O)c2cc3c(cc2C)NC(=O)CO3)cc1` (centres undefined) returned an RP-LC retention time of 777 s. Then `Cc1nnc(N2CCCC(C(=O)NC3CCCCC3)C2)c2nn(-c3ccc(Cl)cc3)c(C)c12` (centres undefined), with 784 s. Then `COc1ccc(CN2C=C(C(=O)OCc3noc(-c4ccco4)n3)C(C)=NS2(=O)=O)cc1`, with 1000 s.

The compound `Cn1c(=O)c(N2CCC(NC(=O)Nc3cccc(Cl)c3)CC2)nc2ccccc21` displayed an RP-LC retention time of 944 s. In turn, `CCc1nc2cc3c(cc2n1CC(=O)N1CCCCC1)OCCO3` came in with an RP-LC retention time of 600 s.

Compound `Cc1ccc(C)c(CS(=O)(=O)N2CCc3nc(-c4ccc(Cl)cc4)ncc3C2)c1` registered an RP-LC retention time of 1290 s. Consider `CNc1nc(SC)n(C)c(=O)c1N=O`, for which the RP-LC retention time worked out at 667 s. With `COc1ccc(NC(=O)C2CCN(S(=O)(=O)c3cc(C(=O)N(C)C)cs3)CC2)cc1`, the RP-LC retention time was 730 s.

In turn, `CCCCNC(=O)c1sc(Nc2cccc(C)n2)nc1C` displayed an RP-LC retention time of 777 s. For `CC(C)Oc1ccc(CN2CC(c3nc(-c4ccsc4)nn3C)C2)cc1`, the RP-LC retention time was 696 s. Then `Cn1cc(C(=O)Nc2ccc(N3CCOCC3)cc2)c2cccnc21`, with 658 s; and `CCc1nc2cc(-c3noc(-c4ccc(NC(C)=O)cc4)n3)ccc2o1`, with 925 s.

As to `CC(=O)c1ccc(N2CCN(C(=O)c3csc(-c4ccc(C)n4C)n3)CC2)cc1`, the RP-LC retention time turned out to be 955 s. The same measure for `CCC(C)Nc1nc2c(c(=O)n(C)c(=O)n2C)n1CC(O)COc1ccccc1` (centres undefined): 865 s. Then `Cc1cc(C)c(C(=O)N2CCC(CC(=O)NCc3ccc(F)cc3)CC2)[nH]1`, with 759 s; and `Cc1ccc(NC(=O)C2CCN(S(=O)(=O)c3ccc4c(c3)sc(=O)n4C)CC2)nc1`, with 697 s; and `COc1ccc(N2CCN(C(=O)c3cc(NC(C)=O)cc4nc(C)ccc34)CC2)cc1`, with 603 s. In turn, `Cc1ccc(CNC(=O)c2cc3n(n2)CC(C)(C(=O)NC2CCCCC2)N(C)C3=O)cc1` (centres undefined) came in with an RP-LC retention time of 605 s. On to `CSc1ccc(CNC(=O)c2cn3cc(C)ccc3n2)cc1`, for which the RP-LC retention time worked out at 708 s. The same measure for `COC(=O)c1ccc(NC(=O)c2c(OC)cc(=O)n3c2CCCC3)cc1`: 678 s; for `CCOC(=O)c1cc(C2CC2)nc2c1c(=O)n(Cc1ccc(Cl)cc1)c(=O)n2C`: 1260 s; for `COCCCN1CCC(NC(=O)c2cc(Cl)c(N)c3c2OCC3)CC1`: 641 s.

The compound `Cc1ccc(-c2cn3c(n2)N(C(=O)c2sc(C)nc2C)CCC3)cc1` showed an RP-LC retention time of 642 s. Then `CCCCn1cc(S(=O)(=O)NCc2cccc(C)c2)c2cccnc21`, with 1000 s. The same measure for `COCc1cc(=O)n(CC(=O)Nc2cccc(C)c2C)c(N)n1`: 602 s. Then `CCN1CCCC1CNC(=O)CN1C(=O)C2CCCCN2c2ccc(C(=O)N(C)C)cc21` (centres undefined), with 596 s. The compound `O=c1cc(-c2ccccc2)nc2n1CCN2Cc1ccccn1` returned an RP-LC retention time of 658 s. The compound `O=C(NC1(c2nc(-c3cccnc3)no2)CCCCC1)c1nccc2ccccc12` yielded an RP-LC retention time of 1100 s. `CC(C)NC(=O)N1CCCC(c2cccc(C(=O)NCCCN3CCCCC3)c2)C1` (centres undefined) registered an RP-LC retention time of 623 s. The same measure for `CCc1cccc2c1[nH]c1cc(NC(=O)CCc3c(C)[nH]c(=O)[nH]c3=O)ccc12`: 677 s; for `Cc1ccc(C)c(-c2csc(NC(=O)c3cccs3)n2)c1`: 1040 s; for `Cn1cc(CN2CCC(C(=O)NCCN3CCOCC3)CC2)c2cc(Cl)ccc21`: 568 s. The compound `CCOC(=O)c1nc(N2CCN(c3ccccn3)CC2)c2c(C)noc2n1` yielded an RP-LC retention time of 596 s.

With `Cc1ccc(C)c(NC(=O)N2CCCN(c3ccc(=O)n(-c4ccccc4)n3)CC2)c1`, the RP-LC retention time stood at 745 s.

In turn, `O=C(Cn1c2ccccc2c2ncn(Cc3nc(C4CC4)no3)c(=O)c21)NC1CCCCC1` returned an RP-LC retention time of 834 s. Compound `O=C(NCc1ccccc1)Nc1ccc(-c2nc(-c3ccccc3)co2)cc1` displayed an RP-LC retention time of 1070 s. Then `CC(C)C(=O)NCc1csc(C2CCN(C(=O)COc3ccccc3)CC2)n1`, with 722 s; and `CC1CCN(C(=O)CCC(=O)N2CCCN(c3nc4cccnc4s3)CC2)CC1`, with 698 s. Then `COc1cccc(-n2c(=O)c(C(=O)NCc3cc(F)cc(F)c3)c(O)c3cccnc32)c1`, with 1170 s; and `CCn1nc(C)c(CCNC(=O)c2cc3c(=O)n(CCOC)ccc3nc2C)c1C`, with 576 s; and `CC(=O)NNC(=O)N1Cc2ccccc2Oc2ccc(Cl)cc21`, with 843 s. `COC(=O)c1c(C)[nH]c(C(=O)N2CCC(CC(=O)NCCc3c[nH]c4ccc(C)cc34)CC2)c1C`: the RP-LC retention time came to 750 s. Then `Cc1cc(=O)n(CC(=O)NCc2ccc3c(c2)OCO3)c(-c2ccc(F)cc2)n1`, with 940 s; and `Cc1ccc(NC(=O)Nc2cccn3nc(C)nc23)cc1`, with 803 s. As to `Cc1cc(Nc2ccccc2)nc(N2CCN(C(=O)Nc3ccc(Cl)cc3)CC2)n1`, the RP-LC retention time was 761 s. The same measure for `CC(=O)N1CCN(c2nc(CC(C)C)c3c(c2C#N)CC(C)(C)OC3)CC1`: 1060 s; for `Cc1ccsc1C(=O)NCC12CCCC=C1N(CC1CC1)C(=O)CC2` (centres undefined): 904 s.

Take `Cc1nc(Nc2ccc(F)cn2)sc1C(=O)NC(C)c1ccccc1` (centres undefined): the RP-LC retention time stood at 861 s. Then `CCn1cc(S(=O)(=O)N2CC(Oc3ccc(-c4nc(C)no4)cc3)C2)cn1`, with 844 s; and `Cc1ccc(NC(=O)Cn2nc3c(Oc4cccc(F)c4)nccn3c2=O)c(F)c1`, with 878 s.

The compound `O=C(c1ccc2c(c1)OCO2)N1CCC(N2C[C@H]3C[C@H](C2)[C@H]2CCCC(=O)N2C3)CC1` had an RP-LC retention time of 561 s. With `O=C(c1ccc(F)cc1)N1CCN(c2ccc(=O)n(-c3cccc(Cl)c3)n2)CC1`, the RP-LC retention time was 869 s. Then `CCc1nc(OCC(=O)Nc2cc(Cl)ccc2Cl)c2ccccc2n1`, with 964 s; and `CN(C)Cc1c(C(=O)NCCOc2ccc(C(=O)NO)cc2)oc2ccccc12`, with 628 s; and `CN1c2cc(C(=O)NC3CCN(Cc4ccccc4)CC3)ccc2C(=O)N2CCCCC21` (centres undefined), with 586 s. Then `Cc1nn(CCCC(=O)N2CCN(c3ccccn3)CC2)c(=O)c2cc3sccc3n12`, with 587 s; and `CCCC(=O)Nc1ccc2c(c1)CN(C(=O)c1ccccc1)C(C(=O)N(C)C)C2` (centres undefined), with 671 s; and `CCOCCCNC(=O)C1CCN(c2ncnc3c2oc2ccccc23)CC1`, with 633 s. As for `COc1ccc(C(=O)Nc2ccc(-c3cn4ccc(C)nc4n3)cc2)cc1OC`, the RP-LC retention time was determined as 604 s. In turn, `Cc1ccc(C)c(N2CCN(c3ccnc(SCC(=O)Nc4cc(F)ccc4C)n3)CC2)c1` returned an RP-LC retention time of 1040 s. With `COc1ccccc1NC(=O)Nc1cccc(-c2ccc(N3CCOCC3)nn2)c1`, the RP-LC retention time was 702 s. As to `COc1ccc(NC(=O)CSc2cc(N3CCN(c4ccccc4OC)CC3)ncn2)cc1Cl`, the RP-LC retention time is 981 s.

For `Cn1nc(-c2nnc(-c3ccccc3)o2)c2c1CCN(S(=O)(=O)c1cccc(C(F)(F)F)c1)C2`, the RP-LC retention time stood at 981 s. `CC(Sc1nnnn1-c1ccccc1)C(=O)Nc1ccc(N2CCN(C)CC2)cc1` (centres undefined) showed an RP-LC retention time of 580 s. Then `Cc1nc2c(NS(=O)(=O)c3ccc(Cl)cc3)cccn2n1`, with 778 s. Then `COc1ccc(CNC(=O)c2ccc3[nH]c4c(c3c2)CN(C(C)=O)CC4)c(OC)c1`, with 680 s. The same measure for `CC1CCc2nn(CC(=O)Nc3cc(F)ccc3F)cc2C1` (centres undefined): 983 s; for `O=C(C1CC1)N1CCc2sc(S(=O)(=O)NCc3cccs3)cc2C1`: 794 s. In turn, `Cc1ccc2c(C)nc(Nc3ncc4c(n3)CCCC4=O)nc2c1` yielded an RP-LC retention time of 598 s.
